Assay results as given in patent US9051310B2, “Nicotinamide derivative or salt thereof” (FUJIFILM Corporation, priority 2011, dated 2015).

Experiments:
[1] = target: T1, glutathione S-transferase (GST)-linked full-length human Syk protein (Homo sapiens, UniProt P43405); test: Syk enzyme assay; type: biochemical; settings: 0.83 nM Syk, time-resolved fluorescence; read-out: IC50 of Syk-inhibitory activity
T1 construct: glutathione S-transferase (GST)-linked full-length human Syk protein; purchased Carna Biosciences; host or cells: Baculovirus expression system
In short: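 Phosphotyrosine on a biotin-peptide substrate (0.5 μM) was read by time-resolved fluorescence at 615 and 665 nm with Eu-anti-pTyr antibody and APC-streptavidin after 1 h EDTA stop.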

[2] = test system: THP-1 cells (TNFα secretion on human IgG-coated plate); test: TNFα generation assay; type: cell-based; settings: IFN-γ differentiated THP-1 cells, 7 hours, AlphaLISA, read-out: IC50 of TNFα generation inhibitory activity
Experimental: THP-1 cells (2×10^5 cells/ml), which were human monocytoid cells, were cultured in the presence of 10 ng/ml IFN-γ (Roche) for 2 days, and they were induced to differentiate into macrophage-like cells. The differentiation-induced THP-1 cells were recovered, and the cells (1×10^6 cell/ml) were then allowed to react with a predetermined concentration of test compound at room temperature for 30 minutes. On the other hand, 100 μl of human IgG (10 μg/ml, SIGMA-ALDRICH) diluted with PBS was added to a 96-well plate, and it was then incubated at room temperature overnight. Thereafter, the resultant was washed with PBS twice to produce a human IgG-coated plate. A cell fluid that contained a compound was plated on the obtained human IgG-coated plate (5×10^4 cells/well), and it was then cultured for 7 hours. Thereafter, the cultured solution was recovered, and the amount of TNFα secreted into the culture solution was then measured by the AlphaLISA method (PerkinElmer).

SMILES | IC50 [1] | IC50 [2]
Cc1cc(C)cc(Nc2nc(N[C@H](C3CC3)[C@H](C)N)c(F)cc2C(N)=O)c1 [Example 2-45, 6-(((1R,2S)-2-amino-1-cyclopropylpropyl)amino)-2-((3,5-dimethylphenyl)amino)-5-fluoronicotinamide] | < 10 nM | 130 to 200 nM
COc1cccc(Nc2nc(N[C@H](C3CC3)[C@H](C)N)c(F)cc2C(N)=O)c1 [Example 2-46, 6-(((1R,2S)-2-amino-1-cyclopropylpropyl)amino)-5-fluoro-2-((3-methoxyphenyl)amino)nicotinamide] | < 10 nM | 65 to 130 nM
COc1cc(Nc2nc(N[C@H](C3CC3)[C@H](C)N)c(F)cc2C(N)=O)cc(OC)c1 [Example 2-47, 6-(((1R,2S)-2-amino-1-cyclopropylpropyl)amino)-2-((3,5-dimethoxyphenyl)amino)-5-fluoronicotinamide] | < 10 nM | 65 to 130 nM
COc1cc(Nc2nc(N[C@H](C3CC3)[C@H](C)N)c(F)cc2C(N)=O)ccc1C [Example 2-49, 6-(((1R,2S)-2-amino-1-cyclopropylpropyl)amino)-5-fluoro-2-((3-methoxy-4-methylphenyl)amino)nicotinamide] | < 10 nM | 130 to 200 nM
COc1nn(CC(F)F)c2ccc(Nc3nc(N[C@H](CC(C)C)[C@H](C)N)c(F)cc3C(N)=O)cc12 [Example 2-54, 6-(((2S,3R)-2-amino-5-methylhexan-3-yl)amino)-2-((1-(2,2-difluoroethyl)-3-methoxy-1H-indazol-5-yl)amino)-5-fluoronicotinamide] | < 10 nM | 130 to 200 nM
CC[C@@H](Nc1nc(Nc2ccc3onc(OC)c3c2)c(C(N)=O)cc1F)[C@H](C)N [Example 2-57, 6-(((2S,3R)-2-aminopentan-3-yl)amino)-5-fluoro-2-((3-methoxybenzo[d]isoxazol-5-yl)amino)nicotinamide] | < 10 nM | 65 to 130 nM
C[C@H](N)[C@H](Nc1nc(Nc2ccc(F)cc2)c(C(N)=O)cc1F)C1CC1 [Example 2-58, 6-(((1R,2S)-2-amino-1-cyclopropylpropyl)amino)-5-fluoro-2-((4-fluorophenyl)amino)nicotinamide] | 10 to 50 nM | 130 to 200 nM
NC(=O)c1cc(F)c(N[C@@H]2CCCC[C@@H]2N)nc1Nc1cnc(-n2nccn2)c(F)c1 [Example 2-67, 6-(((1R,2S)-2-aminocyolohexyl)amino)-5-fluoro-2-((5-fluoro-6-(2H-1,2,3-triazol-2-yl)pyridin-3-yl)amino)nicotinamide] | 10 to 50 nM | 130 to 200 nM
CCCC[C@@H](Nc1nc(Nc2cncc(-n3cccn3)c2)c(C(N)=O)cc1F)[C@H](C)N [Example 2-69, 2-((5-(1H-pyrazol-1-yl)pyridin-3-yl)amino)-6-(((2S,3R)-2-aminoheptan-3-yl)amino)-5-fluoronicotinamide] | 10 to 50 nM | 130 to 200 nM
C[C@H](N)[C@H](Nc1nc(Nc2ccc3c(cnn3CC(F)F)c2)c(C(N)=O)cc1F)C1CC1 [Example 2-71] | < 10 nM | < 65 nM
C[C@H](N)[C@H](Nc1nc(Nc2ccc3c(c2)c(N(C)C)nn3C)c(C(N)=O)cc1F)C1CC1 [Example 2-72, 6-(((1R,2S)-2-amino-1-cyclopropylpropyl)amino)-2-((3-(dimethylamino)-1-methyl-1H-indazol-5-yl)amino)-5-fluoronicotinamide] | < 10 nM | 130 to 200 nM
CCn1nc(OC)c2cc(Nc3nc(N[C@H](C4CC4)[C@H](C)N)c(F)cc3C(N)=O)ccc21 [Example 2-73, 6-(((1R,2S)-2-amino-1-cyclopropylpropyl)amino)-2-((1-ethyl-3-methoxy-1H-indazol-5-yl)amino)-5-fluoronicotinamide] | < 10 nM | 130 to 200 nM
C[C@H](N)[C@H](Nc1nc(Nc2cccc3c2cnn3CC(F)F)c(C(N)=O)cc1F)C1CC1 [Example 2-75, 6-(((1R,2S)-2-amino-1-cyclopropylpropyl)amino)-2-((1-(2,2-difluoroethyl)-1H-indazol-4-yl)amino)-5-fluoronicotinamide] | < 10 nM | 130 to 200 nM
COc1nn(C)c2ccc(Nc3nc(N[C@@H](CN)CC(C)C)c(F)cc3C(N)=O)cc12 [Example 2-78, (R)-6-((1-amino-4-methylpentan-2-yl)amino)-5-fluoro-2-((3-methoxy-1-methyl-1H-indazol-5-yl)amino)nicotinamide] | < 10 nM | 65 to 130 nM
COc1nn(C)c2ccc(Nc3nc(N[C@@H](CN)CC4CC4)c(F)cc3C(N)=O)cc12 [Example 2-79, (R)-6-((1-amino-3-cyclopropylpropan-2-yl)amino)-5-fluoro-2-((3-methoxy-1-methyl-1H-indazol-5-yl)amino)nicotinamide] | < 10 nM | 130 to 200 nM
CCC[C@@H](Nc1nc(Nc2ccc3c(c2)c(OC)nn3C)c(C(N)=O)cc1F)[C@H](C)N [Example 2-80, 6-(((2S,3R)-2-aminohexan-3-yl)amino)-5-fluoro-2-((3-methoxy-1-methyl-1H-indazol-5-yl)amino)nicotinamide] | < 10 nM | 65 to 130 nM
COc1nn(C)c2ccc(Nc3nc(N[C@H](C4CCC4)[C@H](C)N)c(F)cc3C(N)=O)cc12 [Example 2-82, 6-(((1R,2S)-2-amino-1-cyclobutylpropyl)amino)-5-fluoro-2-((3-methoxy-1-methyl-1H-indazol-5-yl)amino)nicotinamide] | < 10 nM | 130 to 200 nM
CCCC[C@@H](Nc1nc(Nc2ccc3c(c2)c(OC)nn3C)c(C(N)=O)cc1F)[C@H](C)N [Example 2-83, 6-(((2S,3R)-2-aminoheptan-3-yl)amino)-5-fluoro-2-((3-methoxy-1-methyl-1H-indazol-5-yl)amino)nicotinamide] | < 10 nM | 130 to 200 nM
CC[C@H](N)[C@@H](C)Nc1nc(Nc2ccc3c(c2)c(OC)nn3C)c(C(N)=O)cc1F [Example 2-84, 6-(((2R,3S)-3-aminopentan-2-yl)amino)-5-fluoro-2-((3-methoxy-1-methyl-1H-indazol-5-yl)amino)nicotinamide] | < 10 nM | 130 to 200 nM
CC[C@H](N)[C@@H](CC)Nc1nc(Nc2cccc3c2cnn3CC)c(C(N)=O)cc1F [Example 2-101, 6-(((3R,4S)-4-aminohexan-3-yl)amino)-2-((1-ethyl-1H-indazol-4-yl)amino)-5-fluoronicotinamide] | < 10 nM | 130 to 200 nM
CC(C)[C@@H](Nc1nc(Nc2ccc3ncccc3c2)c(C(N)=O)cc1F)[C@H](C)N [Example 2-106, 6-(((2S,3R)-2-amino-4-methylpentan-3-yl)amino)-5-fluoro-2-(quinolin-6-ylamino)nicotinamide] | 10 to 50 nM | 130 to 200 nM
CCn1ncc2c(Nc3nc(N[C@H](COC)[C@H](C)N)c(F)cc3C(N)=O)cccc21 [Example 2-122, 6-(((2S,3S)-3-amino-1-methoxybutan-2-yl)amino)-2-((1-ethyl-1H-indazol-4-yl)amino)-5-fluoronicotinamide] | 10 to 50 nM | 130 to 200 nM
CC[C@@H](Nc1nc(Nc2ccc3c(c2)c(OC)nn3CCOC)c(C(N)=O)cc1F)[C@H](C)N [Example 2-125, 6-(((2S,3R)-2-aminopentan-3-yl)amino)-5-fluoro-2-((3-methoxy-1-(2-methoxyethyl)-1H-indazol-5-yl)amino)nicotinamide] | < 10 nM | 65 to 130 nM
CC[C@H](N)[C@@H](C)Nc1nc(Nc2ccc3c(c2)c(OC)nn3CCOC)c(C(N)=O)cc1F [Example 2-129, 6-(((2R,3S)-3-aminopentan-2-yl)amino)-5-fluoro-2-((3-methoxy-1-(2-methoxyethyl)-1H-indazol-5-yl)amino)nicotinamide] | 10 to 50 nM | 130 to 200 nM
COCCn1nc(C)c2cc(Nc3nc(N[C@@H](CN)CC(C)C)c(F)cc3C(N)=O)ccc21 [Example 2-130] | < 10 nM | 65 to 130 nM
CC[C@@H](Nc1nc(Nc2ccc3c(c2)c(C)nn3CCOC)c(C(N)=O)cc1F)[C@H](C)N [Example 2-131, 6-(((2S,3R)-2-aminopentan-3-yl)amino)-5-fluoro-2-((1-(2-methoxyethyl)-3-methyl-1H-indazol-5-yl)amino)nicotinamide] | < 10 nM | 65 to 130 nM
CCC[C@@H](Nc1nc(Nc2ccc3c(c2)c(C)nn3CCOC)c(C(N)=O)cc1F)[C@H](C)N [Example 2-132, 6-(((2S,3R)-2-aminohexan-3-yl)amino)-5-fluoro-2-((1-(2-methoxyethyl)-3-methyl-1H-indazol-5-yl)amino)nicotinamide] | < 10 nM | 130 to 200 nM
COCCn1nc(C)c2cc(Nc3nc(N[C@H](C4CC4)[C@H](C)N)c(F)cc3C(N)=O)ccc21 [Example 2-133, 6-(((1R,2S)-2-amino-1-cyclopropylpropyl)amino)-5-fluoro-((1-(2-methoxyethyl)-3-methyl-1H-indazol-5-yl)amino)nicotinamide] | < 10 nM | 65 to 130 nM
COCCn1nc(C)c2cc(Nc3nc(N[C@H](CC(C)C)[C@H](C)N)c(F)cc3C(N)=O)ccc21 [Example 2-134, 6-(((2S,3R)-2-amino-5-methylhexan-3-yl)amino)-5-fluoro-2-((1-(2-methoxyethyl)-3-methyl-1H-indazol-5-yl)amino)nicotinamide] | < 10 nM | 130 to 200 nM
